Data from patent US9393316B2, “Cancer targeting peptides for enhancing anti-cancer drug delivery and therapeutic efficiencies” (priority 2014, dated 2016).
Where no end group is shown, it is not given here.

Test system: HCT116 cells
Assay: Flow cytometry binding of biotinylated pHCT74 peptide
Set-up: species or system human
Description: We propose the use of biotinylated pHCT74 peptide and a chemical cross-linker, DTSSP, to identify the unknown target protein on the plasma membrane of HCT116 cells. A biotin molecule was conjugated to the C terminus of synthetic pHCT74 peptide. The binding characteristics of biotinylated pHCT74 peptide to HCT116 cells were evaluated by flow cytometry for analyzing the concentration dependency of the binding (FIG. 4B). […] The membrane proteins of HCT116 cells were bound with biotin-pHCT74 peptide, cross-linked by DTSSP; followed by SDS-PAGE separation and LC/MS/MS analysis. A sharp bands was detected by silver staining (FIG. 4C), and subsequently analyzed by LC/MS/MS after tryptic digestion. Twelve tryptic peptides were identified as alpha-enolase (ENO1) fragments by search algorithms based on MASCOT software. Coverage of the identified peptides was 57% of the alpha-enolase sequence and the probability score was 424 (FIG. 4D).

“biotinylated pHCT74 peptide: synthetic pHCT74 peptide with a biotin molecule conjugated to the C terminus (SSMDIVLRAPLMGGG-biotin)” was tested, and the “cell binding activity after C-terminal biotin addition” value was “did not affect its cell binding activity”.
